The values that follow come from patent US8901118B2, “Compounds and methods for kinase modulation, and indications therefor” (Plexxikon Inc., priority 2010, dated 2014).

The target of test [1] is CYP3A4(BQ) (Homo sapiens, UniProt P08684). Description: CYP3A4(BQ) inhibition. The settings on record: CYP3A4, substrate BQ; read-out: Cyp IC50 3A4(BQ). Type of test: in vitro ADME. In outline:
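Inhibition of human CYP3A4 (BQ substrate) was measured by fluorescence, since blocking metabolism of a known substrate lowers the fluorescent product signal. Compounds dissolved in DMSO at 100 mM were diluted into acetonitrile and then into NADPH regeneration cofactor mix, serially diluted 1:1 across 10 points, and preincubated in 384 well plates for 10 minutes at 37° C.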

Test [2] deals with c-Kit kinase (Homo sapiens, UniProt P10721). The test can be described thus: c-Kit kinase biochemical activity assay (AlphaScreen, biotin-(E4Y)10 phosphorylation). The settings on record: 100 μM ATP; read-out: Biochemical Inhibition IC50 Kit. The procedure, abridged: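 Phosphorylation of 30 nM biotin-(E4Y)10 by c-Kit (0.75 ng per reaction) with 100 µM ATP in HEPES pH 7.5 buffer with Mg2+/Mn2+, 5% DMSO, 1 h at room temperature; 8-point 1:2 compound dilutions. AlphaScreen detection with streptavidin donor and PY20 acceptor beads after EDTA stop. IC50 from signal versus concentration.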
(Alpha assays give light when donor and acceptor beads are brought close together.)

Test [3] addresses CYP2D6 (Homo sapiens, UniProt P10635). The test can be described thus: CYP2D6 inhibition (fluorescent substrate AMMC). The note with it: read-out: Cyp IC50 2D6. It is filed as in vitro ADME. The procedure, abridged: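 Compounds, serially diluted 1:1 over 10 points in NADPH-regenerating cofactor mix with 5% acetonitrile, were preincubated 10 min at 37 °C, then run with enzyme and substrate at 37 °C (CYP1A2 15 min; CYP2C9 45 min; CYP2C19, CYP2D6 30 min). Product fluorescence gave IC50s.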

pIC50: −log10 of the molar value.

c-Kit kinase, sequence (P10721 26-976): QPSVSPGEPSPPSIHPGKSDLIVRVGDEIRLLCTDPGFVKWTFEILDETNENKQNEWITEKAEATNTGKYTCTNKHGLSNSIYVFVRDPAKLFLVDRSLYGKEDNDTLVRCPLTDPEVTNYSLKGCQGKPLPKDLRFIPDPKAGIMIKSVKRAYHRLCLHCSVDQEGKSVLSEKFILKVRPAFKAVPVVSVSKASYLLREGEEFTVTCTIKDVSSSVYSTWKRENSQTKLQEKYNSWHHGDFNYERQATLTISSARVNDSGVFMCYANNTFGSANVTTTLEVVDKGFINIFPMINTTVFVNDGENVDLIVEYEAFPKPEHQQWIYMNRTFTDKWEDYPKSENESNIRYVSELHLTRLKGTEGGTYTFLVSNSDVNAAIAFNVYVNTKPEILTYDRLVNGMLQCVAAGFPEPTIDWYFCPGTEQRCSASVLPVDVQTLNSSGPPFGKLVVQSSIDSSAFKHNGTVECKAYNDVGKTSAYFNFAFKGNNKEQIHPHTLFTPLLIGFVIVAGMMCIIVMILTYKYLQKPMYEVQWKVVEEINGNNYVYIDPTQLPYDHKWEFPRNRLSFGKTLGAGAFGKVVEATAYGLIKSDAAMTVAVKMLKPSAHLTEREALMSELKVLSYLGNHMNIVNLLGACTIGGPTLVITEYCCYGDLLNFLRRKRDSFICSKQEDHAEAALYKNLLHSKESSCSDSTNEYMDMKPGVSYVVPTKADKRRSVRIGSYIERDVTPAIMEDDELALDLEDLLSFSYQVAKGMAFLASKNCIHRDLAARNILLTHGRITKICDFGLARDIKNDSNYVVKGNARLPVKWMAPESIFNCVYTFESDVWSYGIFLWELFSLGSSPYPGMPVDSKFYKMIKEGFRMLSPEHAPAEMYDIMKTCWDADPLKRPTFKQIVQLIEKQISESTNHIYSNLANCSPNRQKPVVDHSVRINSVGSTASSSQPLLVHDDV
CYP2D6, sequence (P10635 whole entry): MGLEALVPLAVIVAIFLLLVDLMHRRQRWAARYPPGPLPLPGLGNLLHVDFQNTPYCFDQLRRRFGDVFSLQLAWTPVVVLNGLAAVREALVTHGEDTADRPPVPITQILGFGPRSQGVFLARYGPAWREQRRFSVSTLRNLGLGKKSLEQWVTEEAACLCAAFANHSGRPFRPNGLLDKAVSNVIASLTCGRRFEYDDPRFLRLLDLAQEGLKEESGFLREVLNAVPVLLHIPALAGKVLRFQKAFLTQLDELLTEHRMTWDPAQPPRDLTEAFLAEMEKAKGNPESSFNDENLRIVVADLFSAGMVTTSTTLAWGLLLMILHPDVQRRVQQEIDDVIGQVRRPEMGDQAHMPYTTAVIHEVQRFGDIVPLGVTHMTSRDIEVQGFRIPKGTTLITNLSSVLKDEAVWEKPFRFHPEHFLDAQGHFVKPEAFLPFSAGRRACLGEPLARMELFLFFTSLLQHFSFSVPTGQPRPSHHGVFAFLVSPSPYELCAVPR
CYP3A4(BQ), sequence (P08684 whole entry): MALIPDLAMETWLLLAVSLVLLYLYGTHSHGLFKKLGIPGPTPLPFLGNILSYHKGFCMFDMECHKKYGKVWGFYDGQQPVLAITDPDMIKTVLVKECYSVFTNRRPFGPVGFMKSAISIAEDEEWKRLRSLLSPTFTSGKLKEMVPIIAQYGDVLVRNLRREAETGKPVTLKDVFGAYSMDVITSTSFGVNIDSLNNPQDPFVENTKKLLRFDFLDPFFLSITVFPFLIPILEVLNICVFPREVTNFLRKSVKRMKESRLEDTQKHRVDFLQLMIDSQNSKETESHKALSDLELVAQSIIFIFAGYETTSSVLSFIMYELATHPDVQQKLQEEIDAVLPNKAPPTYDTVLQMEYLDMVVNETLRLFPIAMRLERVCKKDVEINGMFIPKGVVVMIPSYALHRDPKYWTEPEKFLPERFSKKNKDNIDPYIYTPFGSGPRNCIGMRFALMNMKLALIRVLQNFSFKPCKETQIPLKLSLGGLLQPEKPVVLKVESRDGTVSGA

In the case of `CNc1ncnc2[nH]cc(C(=O)c3ccc(Nc4ccc(OC)nc4)nc3F)c12` [Compound P-4083, [2-fluoro-6-[(6-methoxy-3-pyridyl)amino]-3-pyridyl]-[4-(methylamino)-7H-pyrrolo[2,3-d]pyrimidin-5-yl]methanone], the pIC50 (usually the negative decadic logarithm of the IC50, by convention in mol/L) in test [1] is under 5.00; in test [2] it was over 7.00; in test [3] it was under 5.00.
`CNc1ncnc2[nH]cc(C(=O)c3ccc(NC4CCC(F)(F)CC4)nc3Cl)c12` [Compound P-4058, [2-chloro-6-[(4,4-difluorocyclohexyl)amino]-3-pyridyl]-[4-(methylamino)-7H-pyrrolo[2,3-d]pyrimidin-5-yl]methanone]: the pIC50 was under 5.00 in test [1], under 6.00 in test [2] and under 5.00 in test [3].
As for `CCc1ccc(Nc2ccc(C(=O)c3c[nH]c4ncnc(NC5CCC5)c34)c(F)n2)cn1` [Compound P-4095, [4-(cyclobutylamino)-7H-pyrrolo[2,3-d]pyrimidin-5-yl]-[6-[(6-ethyl-3-pyridyl)amino]-2-fluoro-3-pyridyl]methanone], the figures for the pIC50 in test [1], in test [2] and in test [3] were under 5.00, over 7.00 and under 5.00, respectively.
As for `COc1ccc(Nc2ccc(C(=O)c3c[nH]c4ncnc(N5CCOCC5)c34)c(F)n2)cn1` [Compound P-4070, [2-fluoro-6-[(6-methoxy-3-pyridyl)amino]-3-pyridyl]-(4-morpholino-7H-pyrrolo[2,3-d]pyrimidin-5-yl)methanone], the results for the pIC50 in test [1], in test [2] and in test [3] were under 5.00, under 6.00 and under 5.00, respectively.
With `O=C(c1ccc(NC2CCC(F)(F)CC2)nc1Cl)c1c[nH]c2ncnc(NC3CC3)c12` [Compound P-4059, [2-chloro-6-[(4,4-difluorocyclohexyl)amino]-3-pyridyl]-[4-(cyclopropylamino)-7H-pyrrolo[2,3-d]pyrimidin-5-yl]methanone], the pIC50 in test [1] is under 5.00; in test [2], over 6.00; in test [3], under 5.00.
Turning to `CNc1ncnc2[nH]cc(C(=O)c3ccc(Nc4ccc(C(F)(F)F)nc4)nc3F)c12` [Compound P-4092, [2-fluoro-6-[[6-(trifluoromethyl)-3-pyridyl]amino]-3-pyridyl]-[4-(methylamino)-7H-pyrrolo[2,3-d]pyrimidin-5-yl]methanone], the pIC50 is under 5.00 in test [1], over 7.00 in test [2] and over 5.30 in test [3].
`CCc1ccc(Nc2ccc(C(=O)c3c[nH]c4ncnc(NC5CCCC5)c34)c(F)n2)cn1` [Compound P-4099, [4-(cyclopentylamino)-7H-pyrrolo[2,3-d]pyrimidin-5-yl]-[6-[(6-ethyl-3-pyridyl)amino]-2-fluoro-3-pyridyl]methanone]: the values for the pIC50 in test [1], in test [2] and in test [3] were over 5.30, over 7.00 and over 5.30, respectively.
As to `CCc1ccc(Nc2ccc(C(=O)c3c[nH]c4ncnc(NC5CC5)c34)c(F)n2)cn1` [Compound P-4125, [4-(cyclopropylamino)-7H-pyrrolo[2,3-d]pyrimidin-5-yl]-[6-[(6-ethyl-3-pyridyl)amino]-2-fluoro-3-pyridyl]methanone], the pIC50 is under 5.00 in test [1], over 7.00 in test [2] and under 5.30 in test [3].
In the same order, the values of `CCCNc1ncnc2[nH]cc(C(=O)c3ccc(Nc4cncc(OC)c4)nc3F)c12` [Compound P-4105, [2-fluoro-6-[(5-methoxy-3-pyridyl)amino]-3-pyridyl]-[4-(propylamino)-7H-pyrrolo[2,3-d]pyrimidin-5-yl]methanone] are under 5.00, under 6.00 and under 5.00.
For the molecule `Fc1nc(NC2CCC(F)(F)CC2)ccc1Cc1c[nH]c2ncc(Cl)cc12` [Compound P-3013, [5-(5-Chloro-1H-pyrrolo[2,3-b]pyridin-3-ylmethyl)-6-fluoro-pyridin-2-yl]-(4,4-difluoro-cyclohexyl)-amine], the pIC50 is under 5.00 in test [1], over 6.00 in test [2] and under 5.00 in test [3].
In the case of `COc1cncc(Nc2ccc(C(=O)c3c[nH]c4ncnc(NC(C)C)c34)c(F)n2)c1` [Compound P-4106, [2-fluoro-6-[(5-methoxy-3-pyridyl)amino]-3-pyridyl]-[4-(isopropylamino)-7H-pyrrolo[2,3-d]pyrimidin-5-yl]methanone], the pIC50 in test [1] was under 5.00; in test [2], over 6.00; in test [3], over 5.30.
The corresponding values for `COc1cncc(Nc2ccc(C(=O)c3c[nH]c4ncnc(NC5CC5)c34)c(F)n2)c1` [Compound P-4107, [4-(cyclopropylamino)-7H-pyrrolo[2,3-d]pyrimidin-5-yl]-[2-fluoro-6-[(5-methoxy-3-pyridyl)amino]-3-pyridyl]methanone] are under 5.00, over 7.00 and over 5.30.
The corresponding values for `CC(C)Nc1ncnc2[nH]cc(C(=O)c3ccc(NC4CCCCC4)nc3Cl)c12` [Compound P-4109, [2-chloro-6-(cyclohexylamino)-3-pyridyl]-[4-(isopropylamino)-7H-pyrrolo[2,3-d]pyrimidin-5-yl]methanone] are under 5.00, over 6.00 and under 5.00.
The corresponding values for `CCc1ccc(Nc2ccc(C(=O)c3c[nH]c4ncnc(NCC(C)(C)O)c34)c(F)n2)cn1` [Compound P-4064, [6-[(6-ethyl-3-pyridyl)amino]-2-fluoro-3-pyridyl]-[4-[(2-hydroxy-2-methyl-propyl)amino]-7H-pyrrolo[2,3-d]pyrimidin-5-yl]methanone] are under 5.00, over 7.00 and under 5.00.
As to `O=C(c1ccc(NC2CCC(F)(F)CC2)nc1F)c1c[nH]c2ncnc(NC3CC3)c12` [Compound P-4062, [4-(cyclopropylamino)-7H-pyrrolo[2,3-d]pyrimidin-5-yl]-[6-[(4,4-difluorocyclohexyl)amino]-2-fluoro-3-pyridyl]methanone], the pIC50 in test [1] was under 5.00; in test [2], over 7.00; in test [3], under 5.00.
With `Cc1cnc2[nH]cc(Cc3cnc(Nc4ccc(F)cc4)nc3)c2c1` [Compound P-3010, (4-Fluoro-phenyl)-[5-(5-methyl-1H-pyrrolo[2,3-b]pyridin-3-ylmethyl)-pyrimidin-2-yl]-amine], the pIC50 was under 5.00 in test [1], over 7.00 in test [2] and under 5.00 in test [3].
`CNc1ncnc2[nH]cc(C(=O)c3ccc(NC4CCC(F)(F)CC4)nc3)c12` [Compound P-4089, [6-[(4,4-difluorocyclohexyl)amino]-3-pyridyl]-[4-(methylamino)-7H-pyrrolo[2,3-d]pyrimidin-5-yl]methanone]: the pIC50 is under 5.00 in test [1], over 6.00 in test [2] and under 5.00 in test [3].
With `CCNc1ncnc2[nH]cc(C(=O)c3ccc(Nc4ccc(CC)nc4)nc3F)c12` [Compound P-4123, [4-(ethylamino)-7H-pyrrolo[2,3-d]pyrimidin-5-yl]-[6-[(6-ethyl-3-pyridyl)amino]-2-fluoro-3-pyridyl]methanone], the pIC50 in test [1] was under 5.00; in test [2] it was over 8.00; in test [3], under 5.00.
Turning to `CCC(CC)Nc1ncnc2[nH]cc(C(=O)c3ccc(Nc4ccc(OC)nc4)nc3F)c12` [Compound P-4077, [4-(1-ethylpropylamino)-7H-pyrrolo[2,3-d]pyrimidin-5-yl]-[2-fluoro-6-[(6-methoxy-3-pyridyl)amino]-3-pyridyl]methanone], the figures for the pIC50 in test [1], in test [2] and in test [3] were under 5.00, over 6.00 and under 5.00, respectively.
`CCc1ccc(Nc2ccc(C(=O)c3c[nH]c4ncnc(N[C@@H](C)c5ccc(F)cc5)c34)c(F)n2)cn1` [Compound P-4097, [6-[(6-ethyl-3-pyridyl)amino]-2-fluoro-3-pyridyl]-[4-[[(1S)-1-(4-fluorophenyl)ethyl]amino]-7H-pyrrolo[2,3-d]pyrimidin-5-yl]methanone]: the pIC50 is under 5.00 in test [1], over 6.00 in test [2] and over 5.30 in test [3].
In the same order, the values of `CCC(C)Nc1ncnc2[nH]cc(C(=O)c3ccc(Nc4ccc(OC)nc4)nc3F)c12` (stereo not drawn) [Compound P-4078, [2-fluoro-6-[(6-methoxy-3-pyridyl)amino]-3-pyridyl]-[4-(sec-butylamino)-7H-pyrrolo[2,3-d]pyrimidin-5-yl]methanone] are under 5.00, over 6.00 and under 5.00.
In the case of `COc1ccc(Nc2ccc(C(=O)c3c[nH]c4ncnc(NCC5CCCO5)c34)c(F)n2)cn1` (stereo not drawn) [Compound P-4073, [2-fluoro-6-[(6-methoxy-3-pyridyl)amino]-3-pyridyl]-[4-(tetrahydrofuran-2-ylmethylamino)-7H-pyrrolo[2,3-d]pyrimidin-5-yl]methanone], the pIC50 in test [1] was under 5.00; in test [2], over 6.00; in test [3] it was under 5.00.
Regarding `CCc1ccc(Nc2ccc(C(=O)c3c[nH]c4ncnc(NC5CCC(F)(F)CC5)c34)c(F)n2)cn1` [Compound P-4096, [4-[(4,4-difluorocyclohexyl)amino]-7H-pyrrolo[2,3-d]pyrimidin-5-yl]-[6-[(6-ethyl-3-pyridyl)amino]-2-fluoro-3-pyridyl]methanone], the pIC50 in test [1] was 5.00 to 5.30; in test [2] it was over 6.00; in test [3], over 5.30.
